In US7166607B2, “Substituted indoles” (AstraZeneca AB, priority 2002, dated 2007):

Assays:
rhCRTh2 = target: T1, rhCRTh2 (Homo sapiens, UniProt Q9Y5Y4); assay: Ligand Binding Assay ([3H]PGD2 SPA, HEK cell membranes); conditions: [3H]PGD2 displacement, membranes of HEK cells expressing rhCRTh2/Gα16, SPA beads, 2 hours room temperature
T1 construct: expressed in transfected cells; host or cells: HEK cells (stably transfected, geneticin selection; expression induced with sodium butyrate); membrane preparation
T1 sequence (Q9Y5Y4 1-395): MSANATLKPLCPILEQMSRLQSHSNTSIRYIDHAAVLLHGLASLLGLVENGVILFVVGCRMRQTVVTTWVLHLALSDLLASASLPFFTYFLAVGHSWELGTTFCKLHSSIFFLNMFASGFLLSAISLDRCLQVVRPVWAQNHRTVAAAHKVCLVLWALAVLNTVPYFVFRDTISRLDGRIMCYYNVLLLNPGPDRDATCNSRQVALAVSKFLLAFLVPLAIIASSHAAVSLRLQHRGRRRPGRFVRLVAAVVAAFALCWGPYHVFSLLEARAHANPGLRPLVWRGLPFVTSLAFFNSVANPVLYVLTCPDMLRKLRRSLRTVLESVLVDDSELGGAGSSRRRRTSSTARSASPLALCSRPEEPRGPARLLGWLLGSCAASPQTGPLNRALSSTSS
Procedure: [^3H]PGD2 was purchased from Perkin Elmer Life Sciences with a specific activity of 100–210 Ci/mmol. All other chemicals were of analytical grade.
HEK cells expressing rhCRTh2/Gα16 were routinely maintained in DMEM containing 10% Foetal Bovine Serum (HyClone), 1 mg/ml geneticin, 2 mM L-glutamine and 1% non-essential amino acids. For the preparation of membranes, the adherent transfected HEK cells were grown to confluence in two layer tissue culture factories (Fisher, catalogue number TKT-170-070E). Maximal levels of receptor expression were induced by addition of […] sodium butyrate for the last 18 hours of culture. The adherent cells were washed once with phosphate buffered saline (PBS, 50 ml per cell factory) and detached by the addition of 50 ml per cell factory of ice-cold membrane homogenisation buffer [20 mM HEPES (pH 7.4), 0.1 mM dithiothreitol, 1 mM EDTA, 0.1 mM phenyl methyl sulphonyl fluoride and 100 μg/ml bacitracin]. […] The final pellet was re-suspended in 4 ml of membrane homogenisation buffer per cell factory used and the protein content determined. […]
All assays were performed in Corning clear bottomed, white 96-well NBS plates (Fisher). […] (The optimum coating concentrations were determined for each batch of membranes) The beads were pelleted by centrifugation (800×g for 7 minutes at 4° C.), washed once with assay buffer (50 mM HEPES pH 7.4 containing 5 mM magnesium chloride) and finally re-suspended in assay buffer at a bead concentration of 10 mg/ml.
Each assay contained 20 μl of 6.25 nM [^3H]PGD2, 20 μl membrane saturated SPA beads both in assay buffer and 10 μl of compound solution or 13,14-dihydro-15-keto prostaglandin D2 (DK-PGD2, for determination of non-specific binding, Cayman chemical company). […] The assay plate was incubated at room temperature for 2 hours and counted on a Wallac Microbeta liquid scintillation counter (1 minute per well).

Question: Which melting point does the source give for `Cc1c(Sc2ccc(Cl)cc2)c2c(N3CCN(C(=O)OC(C)(C)C)CC3)cccc2n1CC(=O)O` [Example 23, 3-[(4-chlorophenyl)thio]-4-[4-[(1,1-dimethylethoxy)carbonyl]-1-piperazinyl]-2-methyl-1H-indole-1-acetic acid] here?
Answer: 173 °C

Question: What about the IC50 (rhCRTh2) of the same compound?
Answer: 891 nM

Question: Which IC50 (rhCRTh2) does the source give for `COc1cccc(Sc2c(C)n(CC(=O)O)c3ccc(C)cc23)c1` [Example 29, 3-[(3-methoxyphenyl)thio]-2,5-dimethyl-1H-indole-1-acetic acid] here?
Answer: 4.47 nM

Question: For `Cc1ccc2c(c(Sc3nc(-c4ccccc4)cs3)c(C)n2CC(=O)O)c1S(C)(=O)=O` [Example 50, 2,5-dimethyl-4-(methylsulfonyl)-3-[(4-phenyl-2-thiazolyl)thio]-1H-indole-1-acetic acid], which IC50 (rhCRTh2) is on record?
Answer: 63.1 nM

Question: For `COC(=O)c1ccc2c(c1)c(Sc1ccc(Cl)cc1)c(C)n2CC(=O)O` [Example 53, 3-[(4-chlorophenyl)thio]-5-(methoxycarbonyl)-2-methyl-1H-indole-1-acetic acid], which melting point is on record?
Answer: 221 to 223 °C
